{"source": "paper PMC4710522", "about": "“A Novel Triazolopyridine-Based Spleen Tyrosine Kinase Inhibitor That Arrests Joint Inflammation” (PLoS ONE, 2016)", "key": {"[1]": {"tested_on": "rat passive cutaneous anaphylaxis model", "experiment": "rat passive cutaneous anaphylaxis (PCA) model", "format": "in vivo", "description": "On day 0, male CD-IGS rats (170 – 190g; Charles River Laboratories) were anesthetized with isofluorane, their dorsal region shaved and 50 μl Anti-DNP-IgE (Clone SPE-7, Sigma, St. Louis, MO) that had been diluted 1:1000 in saline was injected via the intradermal route at 3 individual spots along the right side of the back. Saline was injected via the intradermal route at 3 individual spots along the left side of the back as a sham control. Twenty-four hours later, 200 μl of BSA-DNP (Calbiochem, San Diego, CA), prepared (1 mg prepared in a 2% solution of Evans blue dye: Sigma Chemicals, St. Louis, MO) was injected via the IV route via the tail vein. Thirty minutes after the BSA-DNP challenge the experiment was terminated and skin samples from the middle of each injection site taken for Evans blue dye measurement at an OD measurement at 620nm on a plate reader following incubation (2h at 90°C) and homogenization in formamide (Sigma Chemicals, St. Louis, MO). Vehicle (20% Captisol® (Captisol), PO), the positive control (Cromolyn: Sigma Chemicals, St. Louis, MO 100mg/kg, 2mL/kg, IV) or CC0484509 (3 and 10mg/kg, PO) were dosed 1h prior to the IV challenge with BSA-DNP.\nFor the TEL-Syk assay, the intensity values for the 700 and 800 channel were exported as text files in ActivityBase (IDBS, Guildford, UK) to derive the ratios that reflect kinase activity. For LAD2 experiments, enzyme activity values were exported as text files into ActivityBase to calculate “percent release” according to the formula: 100* supernatant OD405/ (supernatant OD405 + (pellet OD405*pellet dilution factor)). For the basophil and B-cells assays, flow cytometry data was exported from the FACS Array and processed using FloJo software package (TreeStar, Inc., Ashland, Oregon). For the JAK2 HEL and Ramos NFAT β-lactamase assays, the fluorescence values obtained at 460 nm and 530 nm were exported into ActivityBase to calculate response ratios. For the neutrophil, macrophage, KDR, and JAK1/3 assays, raw values were exported into ActivityBase to calculate percent inhibition. All IC50 calculations were generated using XLfit (IDBS, Guildford, UK) algorithm 205 within Excel. For PCA, the OD from the saline injected site was subtracted from the OD from the anti-DNP IgE injected site. Evans blue dye extravasation was expressed as mean ± SEM and % inhibition for the test article groups was normalized to the cromolyn positive control. For the CIA model paw measurements (left and right ankle diameter) were taken for each individual animal and averaged. The mean data from each group was plotted and either the AUC(day 11–18) or % inhibition on day 18 was calculated. Data is expressed as mean ± SEM of each group with n = 6–12. […]"}, "[2]": {"molecular_target": "T1, CK2-alpha2_h (Homo sapiens, UniProt P19784)", "T1 construct": "purchased Life Technologies (Invitrogen) SelectScreen, Z'-LYTE / Adapta", "experiment": "SelectScreen kinase assay", "format": "biochemical", "settings": "KM ATP, read-out: % control"}, "[3]": {"molecular_target": "T2, Ret_V804L_h (Homo sapiens, UniProt P07949, V804L)", "T2 construct": "purchased Life Technologies (Invitrogen) SelectScreen, Z'-LYTE / Adapta", "T2 sequence (P07949 29-1114 V804L)": "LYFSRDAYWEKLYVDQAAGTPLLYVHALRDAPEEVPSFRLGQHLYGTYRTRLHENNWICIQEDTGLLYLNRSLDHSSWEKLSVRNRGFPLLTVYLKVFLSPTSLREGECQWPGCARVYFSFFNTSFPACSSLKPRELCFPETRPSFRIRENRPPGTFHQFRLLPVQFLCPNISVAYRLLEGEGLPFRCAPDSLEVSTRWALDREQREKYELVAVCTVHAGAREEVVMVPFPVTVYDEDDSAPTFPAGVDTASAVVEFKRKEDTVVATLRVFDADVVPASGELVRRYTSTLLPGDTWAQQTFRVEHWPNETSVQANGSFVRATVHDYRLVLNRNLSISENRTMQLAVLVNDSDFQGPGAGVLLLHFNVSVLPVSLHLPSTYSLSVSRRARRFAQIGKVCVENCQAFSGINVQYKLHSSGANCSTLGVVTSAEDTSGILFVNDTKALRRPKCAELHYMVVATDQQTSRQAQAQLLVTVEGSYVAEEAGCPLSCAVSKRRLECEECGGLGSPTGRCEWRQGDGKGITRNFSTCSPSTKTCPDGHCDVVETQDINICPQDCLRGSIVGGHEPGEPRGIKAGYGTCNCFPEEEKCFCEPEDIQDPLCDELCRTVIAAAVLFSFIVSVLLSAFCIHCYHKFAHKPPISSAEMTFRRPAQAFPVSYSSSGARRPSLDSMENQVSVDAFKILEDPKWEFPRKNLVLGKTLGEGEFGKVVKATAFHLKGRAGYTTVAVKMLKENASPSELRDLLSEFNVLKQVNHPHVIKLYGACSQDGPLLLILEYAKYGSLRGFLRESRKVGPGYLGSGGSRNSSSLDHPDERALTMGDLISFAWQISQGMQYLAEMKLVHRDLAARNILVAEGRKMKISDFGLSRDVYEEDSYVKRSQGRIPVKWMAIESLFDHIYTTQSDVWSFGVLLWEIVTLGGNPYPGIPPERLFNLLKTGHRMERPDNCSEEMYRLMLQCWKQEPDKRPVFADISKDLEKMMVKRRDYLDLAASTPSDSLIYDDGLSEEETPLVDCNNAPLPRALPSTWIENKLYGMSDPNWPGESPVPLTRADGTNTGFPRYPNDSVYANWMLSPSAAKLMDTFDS", "experiment": "SelectScreen kinase assay", "format": "biochemical", "settings": "KM ATP, read-out: % control"}, "[4]": {"molecular_target": "T3, PI4K-alpha_h (Homo sapiens, UniProt P42356)", "T3 construct": "purchased Life Technologies (Invitrogen) SelectScreen, Z'-LYTE / Adapta", "experiment": "SelectScreen kinase assay", "format": "biochemical", "settings": "10 µM ATP, read-out: % control", "description": "(§1) Syk kinase mode of inhibition studies, including parameters described in Fig 1, were conducted on the LC3000 platform by Caliper Life Sciences (Hopkinton, MA) according to standard protocols developed by the supplier. […] Non-kinase enzyme assays and GPCR, ion channel, and transporter binding assays were run by CEREP (France). Non-GLP manual patch clamp hERG assays were run by ChanTest (Cleveland, Ohio). Vivid® Assay kits (Life Technologies) were used to measure the cytochrome P450 inhibition of the compound against CYP3A, CYP2C9, CYP2C19, CYP2D6, and CYP1A2, as described.\n(§2) Kinase activity was measured using either the Z’-Lyte® or the Adapta® protocols as part of the SelectScreen™ profiling service offered at Life Technologies (Grand Island, NY). For the single point measurements (Part A), CC-509 was kept constant at 3 µM while ATP concentrations [ATP] used were at the KM for ATP (KM ATP) for that specific enyzme, at 10 or 100 µM ATP (10 ATP or 100 ATP, respectively), as indicated. Values expressed as percent control (% control) relative to DMSO-only wells (uninhibited, 100%)."}, "[5]": {"molecular_target": "T4, PI3K-C2 alpha_h (Homo sapiens, UniProt O00443)", "T4 construct": "purchased Life Technologies (Invitrogen) SelectScreen, Z'-LYTE / Adapta", "T4 sequence (O00443 whole entry)": "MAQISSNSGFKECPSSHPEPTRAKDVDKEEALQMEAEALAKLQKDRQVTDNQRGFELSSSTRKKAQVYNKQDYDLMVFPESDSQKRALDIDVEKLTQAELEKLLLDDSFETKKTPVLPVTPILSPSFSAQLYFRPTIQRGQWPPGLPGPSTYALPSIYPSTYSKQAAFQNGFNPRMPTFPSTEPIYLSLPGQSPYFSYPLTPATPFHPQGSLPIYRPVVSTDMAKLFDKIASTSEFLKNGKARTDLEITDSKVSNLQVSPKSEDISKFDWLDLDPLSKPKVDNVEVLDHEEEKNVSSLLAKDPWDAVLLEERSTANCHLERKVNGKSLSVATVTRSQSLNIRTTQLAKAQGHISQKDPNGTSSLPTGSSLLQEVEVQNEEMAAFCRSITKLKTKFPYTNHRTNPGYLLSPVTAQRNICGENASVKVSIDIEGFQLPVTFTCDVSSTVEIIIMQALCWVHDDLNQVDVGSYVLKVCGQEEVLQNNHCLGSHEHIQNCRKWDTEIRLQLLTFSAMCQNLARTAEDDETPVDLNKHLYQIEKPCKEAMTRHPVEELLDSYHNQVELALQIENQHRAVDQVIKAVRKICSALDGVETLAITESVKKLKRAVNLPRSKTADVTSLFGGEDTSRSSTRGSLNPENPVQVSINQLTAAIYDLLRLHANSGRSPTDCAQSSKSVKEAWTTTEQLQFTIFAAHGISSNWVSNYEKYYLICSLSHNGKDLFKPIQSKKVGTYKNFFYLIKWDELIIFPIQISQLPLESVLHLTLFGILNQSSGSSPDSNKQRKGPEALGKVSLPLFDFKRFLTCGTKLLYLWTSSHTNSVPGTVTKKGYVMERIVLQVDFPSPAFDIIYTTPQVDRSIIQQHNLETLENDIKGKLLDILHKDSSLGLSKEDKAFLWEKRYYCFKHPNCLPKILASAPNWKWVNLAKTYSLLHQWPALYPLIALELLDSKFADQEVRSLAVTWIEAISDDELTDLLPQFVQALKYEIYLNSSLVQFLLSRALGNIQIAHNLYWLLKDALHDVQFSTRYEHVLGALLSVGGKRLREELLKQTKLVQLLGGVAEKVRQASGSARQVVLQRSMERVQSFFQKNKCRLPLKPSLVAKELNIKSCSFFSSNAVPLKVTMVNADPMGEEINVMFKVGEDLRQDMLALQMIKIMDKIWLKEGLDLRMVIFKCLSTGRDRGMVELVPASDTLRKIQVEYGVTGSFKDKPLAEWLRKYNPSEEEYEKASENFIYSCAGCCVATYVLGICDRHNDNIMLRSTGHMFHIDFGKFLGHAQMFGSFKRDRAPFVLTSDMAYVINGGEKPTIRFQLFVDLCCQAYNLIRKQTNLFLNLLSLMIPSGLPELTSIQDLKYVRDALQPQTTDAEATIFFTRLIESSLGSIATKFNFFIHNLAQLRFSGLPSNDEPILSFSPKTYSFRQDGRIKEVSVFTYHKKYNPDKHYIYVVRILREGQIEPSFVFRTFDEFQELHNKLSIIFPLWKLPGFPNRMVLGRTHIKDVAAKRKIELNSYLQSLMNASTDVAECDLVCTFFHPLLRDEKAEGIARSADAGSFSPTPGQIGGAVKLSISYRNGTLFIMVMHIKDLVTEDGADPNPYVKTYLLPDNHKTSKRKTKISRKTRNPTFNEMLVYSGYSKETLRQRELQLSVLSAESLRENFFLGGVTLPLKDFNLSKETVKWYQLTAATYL", "experiment": "SelectScreen kinase assay", "format": "biochemical", "settings": "KM ATP, read-out: % control", "description": "as §1, §2"}, "[6]": {"molecular_target": "T5, PI3_Kinase-delta_h (Homo sapiens, UniProt O00329)", "T5 construct": "purchased Life Technologies (Invitrogen) SelectScreen, Z'-LYTE / Adapta", "experiment": "SelectScreen kinase assay", "format": "biochemical", "settings": "KM ATP, read-out: % control", "description": "as §1, §2"}, "[7]": {"molecular_target": "T6, PI3_Kinase-gamma_h (Homo sapiens, UniProt P48736)", "T6 construct": "purchased Life Technologies (Invitrogen) SelectScreen, Z'-LYTE / Adapta", "experiment": "SelectScreen kinase assay", "format": "biochemical", "settings": "KM ATP, read-out: % control", "description": "as §1, §2"}, "[8]": {"molecular_target": "T7, PI3K-C2 beta_h (Homo sapiens, UniProt O00750)", "T7 construct": "purchased Life Technologies (Invitrogen) SelectScreen, Z'-LYTE / Adapta", "experiment": "SelectScreen kinase assay", "format": "biochemical", "settings": "10 µM ATP, read-out: % control", "description": "as §1, §2"}, "[9]": {"molecular_target": "T8, SPHK2_h (Homo sapiens, UniProt Q9NRA0)", "T8 construct": "purchased Life Technologies (Invitrogen) SelectScreen, Z'-LYTE / Adapta", "T8 sequence (Q9NRA0 whole entry)": "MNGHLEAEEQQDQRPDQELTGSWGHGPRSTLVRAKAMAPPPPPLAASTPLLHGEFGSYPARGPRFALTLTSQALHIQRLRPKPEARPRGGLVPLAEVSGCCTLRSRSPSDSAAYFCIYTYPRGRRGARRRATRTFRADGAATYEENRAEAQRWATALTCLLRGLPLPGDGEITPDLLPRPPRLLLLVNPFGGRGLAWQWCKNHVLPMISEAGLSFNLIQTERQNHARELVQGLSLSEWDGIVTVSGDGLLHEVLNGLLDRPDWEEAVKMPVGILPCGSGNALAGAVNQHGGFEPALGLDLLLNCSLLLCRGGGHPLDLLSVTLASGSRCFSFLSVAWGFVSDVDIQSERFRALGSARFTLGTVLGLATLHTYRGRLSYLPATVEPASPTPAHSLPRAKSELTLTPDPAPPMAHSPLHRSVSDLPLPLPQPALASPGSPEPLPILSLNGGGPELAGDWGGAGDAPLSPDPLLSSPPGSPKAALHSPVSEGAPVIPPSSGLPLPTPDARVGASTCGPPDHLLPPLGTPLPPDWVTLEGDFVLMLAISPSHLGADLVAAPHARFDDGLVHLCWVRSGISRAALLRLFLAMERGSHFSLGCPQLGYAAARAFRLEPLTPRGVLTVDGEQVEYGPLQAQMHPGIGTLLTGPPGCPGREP", "experiment": "SelectScreen kinase assay", "format": "biochemical", "settings": "10 µM ATP, read-out: % control", "description": "as §1, §2"}, "[10]": {"molecular_target": "T9, PI3_Kinase-alpha_h (Homo sapiens, UniProt P42336)", "T9 construct": "purchased Life Technologies (Invitrogen) SelectScreen, Z'-LYTE / Adapta", "experiment": "SelectScreen kinase assay", "format": "biochemical", "settings": "KM ATP, read-out: % control", "description": "as §1, §2"}, "[11]": {"molecular_target": "T10, PI4K-beta_h (Homo sapiens, UniProt Q9UBF8)", "T10 construct": "purchased Life Technologies (Invitrogen) SelectScreen, Z'-LYTE / Adapta", "T10 sequence (Q9UBF8 whole entry)": "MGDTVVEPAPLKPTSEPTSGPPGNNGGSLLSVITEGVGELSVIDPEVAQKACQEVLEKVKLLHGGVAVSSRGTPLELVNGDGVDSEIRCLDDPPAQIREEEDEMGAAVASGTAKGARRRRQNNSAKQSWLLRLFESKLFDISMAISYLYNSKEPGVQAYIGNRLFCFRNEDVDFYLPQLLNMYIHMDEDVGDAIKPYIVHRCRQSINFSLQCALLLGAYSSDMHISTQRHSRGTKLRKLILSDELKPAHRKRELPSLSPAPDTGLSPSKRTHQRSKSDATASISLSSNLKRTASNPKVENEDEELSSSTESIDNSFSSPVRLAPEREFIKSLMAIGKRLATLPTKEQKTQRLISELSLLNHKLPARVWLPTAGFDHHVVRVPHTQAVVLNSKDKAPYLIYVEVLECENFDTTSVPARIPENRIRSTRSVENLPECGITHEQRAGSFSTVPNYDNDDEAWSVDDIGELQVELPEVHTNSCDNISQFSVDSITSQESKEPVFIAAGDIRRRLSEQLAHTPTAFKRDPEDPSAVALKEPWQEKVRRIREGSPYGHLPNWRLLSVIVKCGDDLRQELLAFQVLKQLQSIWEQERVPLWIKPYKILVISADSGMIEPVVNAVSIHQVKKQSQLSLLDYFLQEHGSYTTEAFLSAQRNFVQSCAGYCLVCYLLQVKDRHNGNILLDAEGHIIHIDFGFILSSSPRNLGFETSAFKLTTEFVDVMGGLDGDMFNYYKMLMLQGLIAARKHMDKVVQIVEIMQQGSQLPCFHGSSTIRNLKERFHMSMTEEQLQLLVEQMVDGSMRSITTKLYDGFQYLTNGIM", "experiment": "SelectScreen kinase assay", "format": "biochemical", "settings": "KM ATP, read-out: % control", "description": "as §1, §2"}, "[12]": {"molecular_target": "T11, PIK3C3_h (Homo sapiens, UniProt Q8NEB9)", "T11 construct": "purchased Life Technologies (Invitrogen) SelectScreen, Z'-LYTE / Adapta", "T11 sequence (Q8NEB9 whole entry)": "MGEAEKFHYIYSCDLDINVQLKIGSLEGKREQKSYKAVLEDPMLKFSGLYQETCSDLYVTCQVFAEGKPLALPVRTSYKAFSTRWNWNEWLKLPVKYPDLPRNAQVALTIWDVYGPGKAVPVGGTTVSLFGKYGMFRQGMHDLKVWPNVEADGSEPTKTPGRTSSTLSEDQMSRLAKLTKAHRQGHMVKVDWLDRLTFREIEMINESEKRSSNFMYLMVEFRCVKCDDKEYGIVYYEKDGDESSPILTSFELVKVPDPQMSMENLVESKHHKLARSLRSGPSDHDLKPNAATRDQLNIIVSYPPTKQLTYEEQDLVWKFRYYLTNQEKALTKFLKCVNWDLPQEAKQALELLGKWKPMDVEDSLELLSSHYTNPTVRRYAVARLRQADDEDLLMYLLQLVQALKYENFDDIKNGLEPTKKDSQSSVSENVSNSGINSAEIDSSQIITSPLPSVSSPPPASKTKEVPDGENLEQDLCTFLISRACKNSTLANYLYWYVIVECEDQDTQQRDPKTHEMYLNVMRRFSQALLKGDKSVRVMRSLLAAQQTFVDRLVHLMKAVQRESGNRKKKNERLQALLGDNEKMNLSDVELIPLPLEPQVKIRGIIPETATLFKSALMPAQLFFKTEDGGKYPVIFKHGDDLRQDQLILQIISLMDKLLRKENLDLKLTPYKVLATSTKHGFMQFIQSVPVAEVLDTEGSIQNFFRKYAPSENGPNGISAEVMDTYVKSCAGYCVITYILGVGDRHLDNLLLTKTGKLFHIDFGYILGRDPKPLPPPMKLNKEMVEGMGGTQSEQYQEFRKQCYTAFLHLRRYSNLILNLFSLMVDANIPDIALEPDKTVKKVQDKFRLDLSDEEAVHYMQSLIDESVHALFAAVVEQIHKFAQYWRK", "experiment": "SelectScreen kinase assay", "format": "biochemical", "settings": "KM ATP, read-out: % control", "description": "as §1, §2"}, "[13]": {"molecular_target": "T12, SPHK1_h (Homo sapiens, UniProt Q9NYA1)", "T12 construct": "purchased Life Technologies (Invitrogen) SelectScreen, Z'-LYTE / Adapta", "experiment": "SelectScreen kinase assay", "format": "biochemical", "settings": "KM ATP, read-out: % control", "description": "as §1, §2"}, "[14]": {"molecular_target": "T13, EphA3_h (Homo sapiens, UniProt P29320)", "T13 construct": "purchased Life Technologies (Invitrogen) SelectScreen, Z'-LYTE / Adapta", "experiment": "SelectScreen kinase assay", "format": "biochemical", "settings": "KM ATP, read-out: % control", "description": "as §1, §2"}, "[15]": {"molecular_target": "T14, PhK-gamma1_h (Homo sapiens, UniProt Q16816)", "T14 construct": "purchased Life Technologies (Invitrogen) SelectScreen, Z'-LYTE / Adapta", "experiment": "SelectScreen kinase assay", "format": "biochemical", "settings": "KM ATP, read-out: % control"}, "[16]": {"settings": "male rats; cited from earlier work"}}, "data": [{"smiles": "c1cc(CC2CCOCC2)n2nc(Nc3ccc4c(NC5CCOCC5)n[nH]c4c3)nc2c1", "note": "[CC-509, [3-(2H-3,4,5,6-tetrahydropyran-4-ylamino)(1H-indazol-6-yl)][5-(2H-3,4,5,6-tetrahydropyran-4-ylmethyl)(2H-1,2,4-triazolo[1,5-a]pyridin-2-yl)]amine]", "values": [{"measurement": "inhibition of skin edema, normalized to cromolyn", "setting": "[1]; 3 mg/kg PO, not statistically significant", "result": 26, "unit": "%"}, {"measurement": "inhibition of skin edema, normalized to cromolyn", "setting": "[1]; 10 mg/kg PO, p<0.01", "result": 81, "unit": "%"}, {"measurement": "ED50", "setting": "[1]; Rattus norvegicus, PCA model, dye extravasation", "result": "~5", "unit": "mg/kg"}, {"measurement": "remaining activity at 3 µM", "setting": "[2]", "result": 97, "unit": "%"}, {"measurement": "remaining activity at 3 µM", "setting": "[3]", "result": 22, "unit": "%"}, {"measurement": "remaining activity at 3 µM", "setting": "[4]", "result": 120, "unit": "%"}, {"measurement": "remaining activity at 3 µM", "setting": "[5]", "result": 95, "unit": "%"}, {"measurement": "remaining activity at 3 µM", "setting": "[6]", "result": 58, "unit": "%"}, {"measurement": "remaining activity at 3 µM", "setting": "[7]", "result": 61, "unit": "%"}, {"measurement": "remaining activity at 3 µM", "setting": "[8]", "result": 98, "unit": "%"}, {"measurement": "remaining activity at 3 µM", "setting": "[9]", "result": 105, "unit": "%"}, {"measurement": "remaining activity at 3 µM", "setting": "[10]", "result": 81, "unit": "%"}, {"measurement": "remaining activity at 3 µM", "setting": "[11]", "result": 77, "unit": "%"}, {"measurement": "remaining activity at 3 µM", "setting": "[12]", "result": 79, "unit": "%"}, {"measurement": "remaining activity at 3 µM", "setting": "[13]", "result": 96, "unit": "%"}, {"measurement": "remaining activity at 3 µM", "setting": "[14]", "result": 98, "unit": "%"}, {"measurement": "remaining activity at 3 µM", "setting": "[15]", "result": 75, "unit": "%"}]}, {"smiles": "COc1cc(Nc2ncc(F)c(Nc3ccc4c(n3)NC(=O)C(C)(C)O4)n2)cc(OC)c1OC", "note": "[R406, reference compound]", "values": [{"measurement": "exposure producing myelosuppression", "setting": "[16]", "result": 120, "unit": "µM·h"}]}]}
